Reference: PMC5041982, “Small-molecule inhibition of STAT3 in radioresistant head and neck squamous cell carcinoma” (Oncotarget, 2016)
Like-named read-outs stand apart in the source and are kept apart here.

Legend:
[1] = biological target: T1, pSTAT1 (Tyr-701) (Homo sapiens, UniProt P42224); experiment: Luminex bead-based assay, G-CSF-induced pSTAT1 in Kasumi-1 cells; format: cell-based; details: Figure 2D, Kasumi-1, G-CSF; read-out: Luminex pSTAT1 (Tyr-701) IC50, representative experiment
T1 construct: endogenous in cells; host or cells: Kasumi-1
T1 sequence (P42224 1-750): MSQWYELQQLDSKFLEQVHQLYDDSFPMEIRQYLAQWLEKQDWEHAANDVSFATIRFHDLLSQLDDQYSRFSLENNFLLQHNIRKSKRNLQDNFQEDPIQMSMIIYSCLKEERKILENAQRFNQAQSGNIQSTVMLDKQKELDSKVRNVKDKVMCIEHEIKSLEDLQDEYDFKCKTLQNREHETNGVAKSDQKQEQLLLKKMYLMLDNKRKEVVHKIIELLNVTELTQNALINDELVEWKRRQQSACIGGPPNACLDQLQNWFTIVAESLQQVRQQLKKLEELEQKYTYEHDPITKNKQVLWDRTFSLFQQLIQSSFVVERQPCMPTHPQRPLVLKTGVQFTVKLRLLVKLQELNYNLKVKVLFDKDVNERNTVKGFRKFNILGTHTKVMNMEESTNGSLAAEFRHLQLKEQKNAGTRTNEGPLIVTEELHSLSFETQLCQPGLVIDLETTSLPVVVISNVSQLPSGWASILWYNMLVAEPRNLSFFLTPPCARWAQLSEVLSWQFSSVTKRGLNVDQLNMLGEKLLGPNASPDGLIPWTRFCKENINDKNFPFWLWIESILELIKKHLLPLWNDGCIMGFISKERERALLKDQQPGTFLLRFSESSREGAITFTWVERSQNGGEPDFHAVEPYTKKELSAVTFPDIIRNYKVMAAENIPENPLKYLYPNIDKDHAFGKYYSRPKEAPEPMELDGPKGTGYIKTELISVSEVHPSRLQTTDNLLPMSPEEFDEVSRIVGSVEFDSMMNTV
Procedure: The equilibrium binding levels obtained ± compound were normalized (resonance obtained in the presence of compound ÷ the resonance obtained in the absence of compound × 100) and plotted against Log [nM] […] B. Inhibition of ligand-stimulated STAT phosphorylation, measured by phosphoflow. Serum-starved (1 hour) Kasumi-1 cells, pre-incubated with compound/DMSO (1 hour), were treated with G-CSF (10 ng/ml, 15 min, left two panels) or IFN-γ (10ng/ml, 15 min, right panel). Cells were permeabilized and stained with Alexa647-pSTAT3, and PE-pSTAT1 antibodies and analyzed on BD LSR2. FCS files were uploaded to Cytobank for pSTAT3 and pSTAT1 quantitation. Histograms depicting pSTAT3 and pSTAT1 levels are shown. C. Mean fluorescence (pSTAT3/1) levels were plotted as function the Log [M] compound, and IC50 calculated using GraphPad. […] D. Inhibition of ligand-stimulated STAT phosphorylation, measured by Luminex. Serum-starved (1 hour) Kasumi-1 cells, pre-incubated with compound/DMSO (0/0.1/0.3/1/3/10/100 μM, 1 hour), were treated with G-CSF (10 ng/ml, 15′). Total protein extracts of cells were assayed for pSTAT3, pSTAT1, and GAPDH levels by Luminex. […] These values were plotted as a function of Log [M] compound, and IC50 values calculated using GraphPad. […]
for analysis as described below. were determined by plotting % maximum response as a 3-D pharmacophore generation function of log concentration of compound and fitting the Each molecular chemical feature, including experimental points to a competitive binding model using hydrogen bond donor, hydrogen bond acceptor, positive a four parameter logistic equation: R = Rhigh − (Rhigh − R low)/ (1 + conc/A1)^A2, where R = percent response at and negative ionizable group, and hydrophobic region, inhibitor concentration, R = percent response with no was generated using the LigandScout application compound, R= percent response at highest compound high framework and projected into 3-D space. concentration, A2 = fitting parameter (slope) and A1 = low Feature-pairing IC50 (BIAevaluation Software version 4.1). […]

[2] = tested on: pSTAT5; experiment: Phosphoflow, G-CSF-induced pSTAT5 in Kasumi-1 cells; format: cell-based; details: mean, n ≥ 2, read-out: Ligand Induced Phosphorylation (Phosphoflow) pSTAT5 (G-CSF) IC50
Procedure: (§1) Phosphoflow analysis was done as described in Xu et al. Briefly, Kasumi-1 cells, were serum-starved, pre-treated with compound or DMSO (1 hour, RT) and then stimulated with 20 μl of GCSF (10 ng/ml) for 15 minutes at 37°C. The cells were then permeabilized and stained with Alexa647-pSTAT3, Alexa488-pSTAT5 and PE-pSTAT1 antibodies and analyzed using the BD LSR2. FCS files were exported and uploaded to Cytobank for determination of phosphoproteins as earlier. Gating was done on live, single cells and then gates selected for positive ligand-activated pSTAT3 and pSTAT1. IC50 values were calculated using the GraphPad Prism.

[3] = tested on: UM-SCC-17B xenografts; experiment: UM-SCC-17B tumor xenograft growth in nude mice; format: in vivo; details: IP 5 times a week, 50 mg/kg/day
Procedure: (§2) Tumor volumes were measured twice weekly.
as §2

[4] = tested on: MB-MDA-468; details: MB-MDA-468 in vitro; read-out: Apoptosis EC50; cited from earlier work
[5] = biological target: pSTAT3 (Homo sapiens, UniProt P40763); experiment: pSTAT3 levels in UM-SCC-17B tumor xenografts (immunoblot); details: UM-SCC-17B xenografts, C188 50 mg/kg/day
pSTAT3, sequence (P40763 whole entry): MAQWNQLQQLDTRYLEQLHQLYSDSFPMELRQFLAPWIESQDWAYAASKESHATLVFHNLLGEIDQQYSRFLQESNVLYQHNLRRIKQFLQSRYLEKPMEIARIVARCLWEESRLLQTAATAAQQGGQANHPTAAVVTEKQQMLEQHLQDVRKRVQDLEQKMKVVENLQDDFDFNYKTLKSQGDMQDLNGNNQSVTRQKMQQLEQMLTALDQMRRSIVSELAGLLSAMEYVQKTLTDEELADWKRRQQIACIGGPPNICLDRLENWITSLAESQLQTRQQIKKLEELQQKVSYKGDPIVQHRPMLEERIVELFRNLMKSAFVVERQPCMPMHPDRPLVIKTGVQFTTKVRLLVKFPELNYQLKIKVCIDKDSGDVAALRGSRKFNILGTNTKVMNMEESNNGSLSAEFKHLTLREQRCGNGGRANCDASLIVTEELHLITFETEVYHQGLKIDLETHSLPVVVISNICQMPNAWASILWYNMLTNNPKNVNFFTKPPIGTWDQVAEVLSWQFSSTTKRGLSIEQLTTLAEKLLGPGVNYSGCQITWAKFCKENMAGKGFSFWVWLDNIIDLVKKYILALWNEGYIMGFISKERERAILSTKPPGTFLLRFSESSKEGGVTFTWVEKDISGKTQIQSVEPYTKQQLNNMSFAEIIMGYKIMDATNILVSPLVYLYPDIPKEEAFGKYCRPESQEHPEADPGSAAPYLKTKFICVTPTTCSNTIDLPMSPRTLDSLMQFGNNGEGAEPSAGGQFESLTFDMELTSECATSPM
Procedure: Tumor tissue was minced, homogenized and first), 50% PEG-400 (added second), 40% Saline (added proteins extracted using high-salt buffer, as described last) then vortexed and sonicated at concentration (10 mg/
C57BL/6 mice were provided in membrane (Millipore, Waltham, MA) and immunoblotted. triplicate, a single dose by body weight via either intra-Membranes were probed with antibody against peritoneal (IP) or oral (PO) route at 10 mg/kg at a volume STAT1 pY701 or STAT3 pY705 total STAT1 or STAT3 of 10 mL/kg and plasma samples collected as shown (Transduction labs, Lexington, KY) and β–actin (Abcam, in the study table below. At the indicated times, 3 mice Cambridge, MA). Membranes were stripped between per time point were euthanized per dose route and then

[6] = tested on: UM-SCC-17B cells; experiment: Anchorage dependent growth (MTT); format: cell-based; details: Homo sapiens, 48 hrs
Procedure: GAPDH-normalized pSTAT3 or pSTAT1 values were divided by that for untreated cells and expressed in percentage. These values were plotted as a function of Log [M] compound, and IC50 values calculated using GraphPad. […] Viable cells quantitated using MTT. Relative % viability was measured by (viability after any treatment ÷ viability of untreated cells × 100) and plotted as a function of Log [M] […] C. […] Representative curves are shown.
Cells were cultured in triplicates in complete DMEM ± drug, in ultra-low attachment 96 well plates for 72 hrs or cell-culture treated plates for 48 hrs and viable cells were quantitated using MTT. Optical density (OD) was measured at 590 nm using a 96-well multi-scanner (EL-800 universal microplate reader, BioTek Inc, VT, USA). Relative % viability (viability after any treatment ÷ viability of untreated cells × 100) was plotted along Y-axis. At least 2 replicates experiments were performed and were used for IC50 calculation using GraphPad software.

[7] = Maximum tolerated dose in mice; details: mouse, in vivo
[8] = biological target: T1, pSTAT1 (Tyr-701); experiment: Phosphoflow, IFN-γ-induced pSTAT1 in Kasumi-1 cells; format: cell-based; details: Figure 2C, Kasumi-1; read-out: Phosphoflow pSTAT1 (Tyr-701) IC50, representative experiment
Procedure: The equilibrium binding levels obtained ± compound were normalized (resonance obtained in the presence of compound ÷ the resonance obtained in the absence of compound × 100) and plotted against Log [nM] […] B. Inhibition of ligand-stimulated STAT phosphorylation, measured by phosphoflow. Serum-starved (1 hour) Kasumi-1 cells, pre-incubated with compound/DMSO (1 hour), were treated with G-CSF (10 ng/ml, 15 min, left two panels) or IFN-γ (10ng/ml, 15 min, right panel). Cells were permeabilized and stained with Alexa647-pSTAT3, and PE-pSTAT1 antibodies and analyzed on BD LSR2. FCS files were uploaded to Cytobank for pSTAT3 and pSTAT1 quantitation. Histograms depicting pSTAT3 and pSTAT1 levels are shown. C. Mean fluorescence (pSTAT3/1) levels were plotted as function the Log [M] compound, and IC50 calculated using GraphPad. […] D. Inhibition of ligand-stimulated STAT phosphorylation, measured by Luminex. Serum-starved (1 hour) Kasumi-1 cells, pre-incubated with compound/DMSO (0/0.1/0.3/1/3/10/100 μM, 1 hour), were treated with G-CSF (10 ng/ml, 15′). Total protein extracts of cells were assayed for pSTAT3, pSTAT1, and GAPDH levels by Luminex. GAPDH-normalized pSTAT3 or pSTAT1 values were divided by this ratio for untreated cells and expressed in percentage. These values were plotted as a function of Log [M] compound, and IC50 values calculated using GraphPad.
as §1

With `O=C(O)CSc1cc(NS(=O)(=O)c2ccc(C(=O)O)cc2)c2ccccc2c1O` [Compound C188] the IC50 [1] was 21.9 µM, the IC50 [2] was 40 µM and the “Growth of established UM-SCC-17B xenograft tumors” value [3] was “continued to grow”. The EC50 [4] was 0.7 µM, the “Levels of pSTAT3 in tumors” value [5] was “not reduced significantly” and the IC50 ([6]; mean, read-out: Anchorage dependent growth (MTT) IC50) was 6.3 ± 0.8 µM. The IC50 ([6]; Figure 4B, read-out: Anchorage Dependent growth IC50, representative experiment) was 5.7 µM, the MTD at 14 days [7] was 100 mg/kg/day and the IC50 [8] was 23.4 µM.
